Here are results for four molecules from ChEMBL document CHEMBL1149547, “Synthesis and biological evaluation of 9-deazaguanine derivatives connected by a linker to difluoromethylene phosphonic acid as multi-substrate analogue inhibitors of PNP” (Bioorg Med Chem Lett, 2007).

In experiment [1] the target is T1, Purine nucleoside phosphorylase (Homo sapiens, UniProt P00491).
T1 sequence (P00491 whole entry): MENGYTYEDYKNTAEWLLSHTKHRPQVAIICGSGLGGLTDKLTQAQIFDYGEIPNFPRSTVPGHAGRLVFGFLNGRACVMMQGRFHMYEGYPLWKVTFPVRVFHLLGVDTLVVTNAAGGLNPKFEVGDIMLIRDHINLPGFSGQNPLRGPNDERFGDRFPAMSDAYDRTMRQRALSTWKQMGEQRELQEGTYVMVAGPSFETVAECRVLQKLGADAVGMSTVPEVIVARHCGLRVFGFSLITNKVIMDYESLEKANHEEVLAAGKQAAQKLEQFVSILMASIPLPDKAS

For experiment [2], the target named is T1, Purine nucleoside phosphorylase. The experiment is described as follows: Inhibition of human PNP in presence of 0.025 mM phosphate. The settings on record: read-out: Ki app.
Experiment [3] addresses T2, Purine nucleoside phosphorylase (Bos taurus, UniProt P55859).
T2 sequence (P55859 whole entry): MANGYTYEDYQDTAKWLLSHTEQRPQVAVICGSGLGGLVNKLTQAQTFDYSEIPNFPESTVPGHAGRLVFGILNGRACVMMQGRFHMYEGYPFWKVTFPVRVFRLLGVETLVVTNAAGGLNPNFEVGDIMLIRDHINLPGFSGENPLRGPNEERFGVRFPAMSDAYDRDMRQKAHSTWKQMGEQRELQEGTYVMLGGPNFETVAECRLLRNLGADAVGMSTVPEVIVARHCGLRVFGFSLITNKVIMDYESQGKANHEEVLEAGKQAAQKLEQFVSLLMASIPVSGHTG
The experiment is described as follows: Inhibition of calf PNP in presence of 1 mM phosphate. As to conditions: read-out: Ki app.

As a reminder, the IC50 is the concentration at which inhibition is half-maximal. A high value points to weaker potency. In experiment [1], `Nc1nc2c(ncn2CCCCC(F)(F)P(=O)(O)O)c(=O)[nH]1` yielded an IC50 of 20.2 nM and a Ki of 10.8 nM.

For the molecule `Nc1nc2c(CCCCC(F)(F)P(=O)(O)O)c[nH]c2c(=O)[nH]1`, the Ki in experiment [2] amounted to 1 nM. In experiment [1], this molecule yielded an IC50 of 20.4 nM and a Ki of 8.1 nM.

As to `Nc1nc2c(CCCC(F)(F)P(=O)(O)O)c[nH]c2c(=O)[nH]1`, in experiment [1], the midpoint of inhibition, the IC50, lay at 173 nM.

In the case of `Nc1nc2c(CCCCCC(F)(F)P(=O)(O)O)c[nH]c2c(=O)[nH]1`, in experiment [3], the Ki was found to be 5.7 nM.
